Data on one compound can be found in patent US9617240B2 (TEIJIN PHARMA LIMITED, priority 2013, dated 2017).

The subject of experiment [1] is level of uric acid in the plasma. Kind of experiment: Hypouricemic effect in beagle dogs. Type of experiment: in vivo. To be noted: oral gavage, 3 mg/kg, 24 hours after administration. How it is done: The hypouricemic effect of the compound (I) in beagle dogs was confirmed. A test compound suspended in a 0.5% methyl cellulose solution was orally administered by gavage to beagle dogs (Kitayama Labes). Blood was drawn from the cephalic vein at 24 hours after administration and plasma was separated. The level of uric acid in the plasma sample was measured using an LC-MS/MS method and the percentage of hypouricemic effect was determined by the following expression: Percentage of hypouricemic effect (%)=(Level of uric acid of the control animal−Level of uric acid of the test compound-administered animal)×100/Level of uric acid of the control animal.

The test system of experiment [2] is level of uric acid in the blood. Briefly: Hypouricemic effect in Cebus apella monkeys. Particulars: gavage, 1 mg/kg. It is filed as in vivo. How it is done: To Cebus apella monkeys, test compounds suspended in 0.5% methylcellulose solution were administered by gavage into the stomach through the nasal cavity using a disposable catheter and a syringe. Blood was taken from the saphenous vein at 4 hours and 24 hours after the administration, after which the plasma was separated. The level of uric acid in the blood was measured using a uric acid measurement kit (L type Wako UA F: Wako Pure Chemical Industries, Ltd.) by the uricase method using an absorption spectrometer and the percentage of hypouricemic effect was determined by the following expression: Percentage of hypouricemic effect (%)=(Level of uric acid of the control animal−Level of uric acid of the test compound-administered animal)×100/Level of uric acid of the control animal.

The target of experiment [3] is T1, oxidase type xanthine oxidase (derived from buttermilk) (Bos taurus, UniProt P80457).
T1 construct: oxidase type xanthine oxidase (derived from buttermilk, supplied by Calbiochem Novabiochem Corp.); purchased Calbiochem Novabiochem Corp; host or cells: buttermilk (natural source)
Kind of experiment: Xanthine oxidase inhibitory activity (absorbance change at 290 nm). Particulars: xanthine substrate, 100 mM phosphate buffer, absorbance at 290 nm for 5 minutes; read-out: Inhibitory Activity (50% inhibitory concentration with respect to oxidase type xanthine oxidase). Type of experiment: biochemical. Summed up:
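Buttermilk xanthine oxidase (stock 30.6 mU/mL) was added to 30 μM xanthine stock in 100 mM phosphate buffer containing test compound (1% DMSO). Absorbance change at 290 nm was followed for 5 minutes. Inhibition was calculated against a DMSO control, and IC50 came from dose-response fitting.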

Experiment [4] deals with level of uric acid in the blood. Kind of experiment: Hypouricemic effect in normal rats. It is filed as in vivo, Sprague-Dawley male rats. Particulars: oral gavage, 1 mg/kg. How it is done:
A test compound suspended in a 0.5% methylcellulose solution was administered to 8 to 9 week-old Sprague-Dawley male rats (Japan Charles River Co.) by oral gavage administration using a feeding needle. After the blood was collected from the tail vein at 6 hours and 24 hours after administration, the plasma was separated. The level of uric acid in the blood sample was measured by uricase method using an absorption spectrometer as well as a uric acid determination kit (L type Wako UA F: Wako Pure Chemical Industries, Ltd.). The percentage of hypouricemic effect was determined by the following expression: Percentage of hypouricemic effect (%)=(Level of uric acid of the control animal−Level of uric acid of the test compound-administered animal)×100/Level of uric acid of the control animal.

T1 sequence (P80457 whole entry): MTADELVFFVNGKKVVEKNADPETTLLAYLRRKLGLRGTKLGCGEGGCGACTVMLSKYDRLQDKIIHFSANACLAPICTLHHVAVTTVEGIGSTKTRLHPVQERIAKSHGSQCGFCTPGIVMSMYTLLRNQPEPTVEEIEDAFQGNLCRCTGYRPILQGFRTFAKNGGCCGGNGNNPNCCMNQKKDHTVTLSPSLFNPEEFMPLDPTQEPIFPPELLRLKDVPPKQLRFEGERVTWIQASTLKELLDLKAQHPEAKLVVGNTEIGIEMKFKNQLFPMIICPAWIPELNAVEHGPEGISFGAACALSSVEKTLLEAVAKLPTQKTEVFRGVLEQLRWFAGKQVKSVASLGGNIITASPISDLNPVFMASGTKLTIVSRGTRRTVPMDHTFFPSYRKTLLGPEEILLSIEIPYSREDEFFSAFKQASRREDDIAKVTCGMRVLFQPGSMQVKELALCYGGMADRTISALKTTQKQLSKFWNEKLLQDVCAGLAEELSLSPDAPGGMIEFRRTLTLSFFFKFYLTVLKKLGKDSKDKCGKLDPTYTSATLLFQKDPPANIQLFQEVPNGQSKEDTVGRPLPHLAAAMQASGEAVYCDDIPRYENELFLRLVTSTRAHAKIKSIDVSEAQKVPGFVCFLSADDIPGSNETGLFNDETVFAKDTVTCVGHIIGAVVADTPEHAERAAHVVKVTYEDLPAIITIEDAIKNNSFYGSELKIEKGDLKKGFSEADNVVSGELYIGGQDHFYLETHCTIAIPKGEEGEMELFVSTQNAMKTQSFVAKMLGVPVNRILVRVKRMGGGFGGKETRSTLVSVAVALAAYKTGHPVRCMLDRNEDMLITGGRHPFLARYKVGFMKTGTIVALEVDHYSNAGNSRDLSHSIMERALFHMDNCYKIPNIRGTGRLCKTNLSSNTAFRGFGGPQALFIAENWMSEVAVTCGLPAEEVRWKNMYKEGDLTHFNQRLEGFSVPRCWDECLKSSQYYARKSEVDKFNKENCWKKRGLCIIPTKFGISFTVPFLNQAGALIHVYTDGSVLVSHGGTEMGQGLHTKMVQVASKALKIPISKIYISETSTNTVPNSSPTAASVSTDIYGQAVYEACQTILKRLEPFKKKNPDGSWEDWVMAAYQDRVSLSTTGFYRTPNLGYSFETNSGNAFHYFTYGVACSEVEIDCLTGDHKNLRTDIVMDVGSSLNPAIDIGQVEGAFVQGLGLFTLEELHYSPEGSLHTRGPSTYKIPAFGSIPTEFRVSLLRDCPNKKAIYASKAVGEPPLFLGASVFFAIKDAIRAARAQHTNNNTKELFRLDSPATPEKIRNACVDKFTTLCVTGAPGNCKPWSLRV

Regarding `N#Cc1cc(-n2cc(C(=O)O)cn2)ncc1-c1ccccc1` [Compound 1, 1-(4-cyano-5-phenylpyridin-2-yl)-1H-pyrazole-4-carboxylic acid], the “Percentage of hypouricemic effect” value is listed as at least 50% in experiment [1]; at least 50% in experiment [2] (4 hours after administration); at least 50% in experiment [2] (24 hours after administration); at least 70% in experiment [4] (6 hours after administration); at least 70% in experiment [4] (24 hours after administration). For the same compound, the IC50 in experiment [3] was 1 to 5 nM.
